We go through 3 compounds from patent US6774086B2, “3-Aminocarbonyl-substituted benzoylcyclohexanediones” (Bayer CropScience GmbH, priority 2001, dated 2004).

SMILES strings stand for the structures.

Holding throughout (assay type): in vivo
The test system of data set [1] is Amaranthus retroflexus. Nature of the data set: pre-emergence herbicidal action. The note with it: 320 g a.i./ha, scored visually after 3 to 4 weeks vs untreated controls. An excerpt:
(§1) Seeds of mono- and dicotyledonous harmful plants are placed in sandy loam in cardboard pots and covered with soil. The compounds according to the invention, which are formulated in the form of wettable powders or emulsion concentrates, are then applied to the surface of the soil cover as aqueous suspension or emulsion at a dosage rate stated in table B1 with an application rate of 600 to 800 l of water per ha (converted). After the treatment, the pots are placed into a greenhouse and kept under good growth conditions for the harmful plants. The damage to the plants or their emergence is scored visually after the test plants have emerged after an experimental time of 3 to 4 weeks by comparison with untreated controls.

Data set [2] concerns Sinapis arvensis. Nature of the data set: pre-emergence herbicidal action. The note with it: 320 g a.i./ha, scored visually after 3 to 4 weeks vs untreated controls.
Description: as §1

The test system of data set [3] is Stellaria media. Nature of the data set: pre-emergence herbicidal action. The following applies: 320 g a.i./ha, scored visually after 3 to 4 weeks vs untreated controls.
Description: as §1

Data set [4] has as its system Oryza sativa. Kind of data set: post-emergence action, crop plant damage.
For data set [5], the system named is Amaranthus retroflexus. Nature of the data set: post-emergence herbicidal action. The following applies: three-leaf stage, 320 g a.i./ha, scored after approx. 3 to 4 weeks. The procedure:
(§2) Seeds of mono- and dicotyledonous harmful plants are placed in sandy loam in cardboard pots, covered with soil and grown in the greenhouse under good growth conditions. 2 to 3 weeks after sowing, the test plants are treated in the three-leaf stage. The compounds according to the invention, which are formulated as wettable powders or as emulsion concentrates, are sprayed at a dosage rate stated in table B2 to the surface of the green plant parts at an application rate of 600 to 800 l of water per ha (converted). After the test plants have been left to stand in the greenhouse for approx. 3 to 4 weeks under optimal growth conditions, the effect of the compounds is scored by comparison with compounds of the prior art.

The subject of data set [6] is Sinapis arvensis. Nature of the data set: post-emergence herbicidal action. The following applies: three-leaf stage, 320 g a.i./ha, scored after approx. 3 to 4 weeks. The procedure: as §2
Data set [7] deals with Stellaria media. Nature of the data set: post-emergence herbicidal action. The following applies: three-leaf stage, 320 g a.i./ha, scored after approx. 3 to 4 weeks. The procedure:
as §2

The test system of data set [8] is Sagittaria pygmaea. Nature of the data set: post-emergence action against harmful plants. The procedure: as §2
(§3) In further greenhouse experiments, seeds of barley and of monocotyledonous and dicotyledonous harmful plants are placed in sandy loam, covered with soil and placed in the greenhouse until the plants have developed two to three true leaves. Then, they are treated with the compounds of the formula (I) according to the invention as described above under item 2.

In data set [9] the test system is Monochoria vaginalis. Nature of the data set: post-emergence action against harmful plants. The procedure:
as §2, §3

Data set [10] relates to Cyperus serotinus. Kind of data set: post-emergence action against harmful plants. On the procedure: as §2, §3

Turning to `CN(C(=O)COc1c(S(C)(=O)=O)ccc(C(=O)C2=C(O)CCCC2=O)c1Cl)c1ccccc1` [Compound 1.28], the “Action against harmful plants AMARE” value in data set [1] was found to be 90%. In addition, in [2], the “Action against harmful plants SINAL” value turned out to be 90%. For the same compound, the “Action against harmful plants STEME” value in data set [3] amounted to 90%.
As for `CCN(CC)C(=O)COc1c(Cl)ccc(C(=O)C2=C(O)CCCC2=O)c1Cl` [Compound 3.9], the “Crop plant damage ORYSP” value in data set [4] (90 g a.i./ha) is recorded as 0%. The “Action against harmful plants AMARE” value is given as 90% in [1] and 80% in data set [5]. For the same compound, the entries for the “Action against harmful plants SINAL” value in data set [2] and in data set [6] were 80% and 90%, respectively. In addition, the “Action against harmful plants STEME” value in [3] is listed as 90%; in [7], 100%. Also, the “Action against harmful plants SAGPY” value in data set [8] (90 g a.i./ha) is listed as 90%. Also, the “Action against harmful plants MOOVA” value in data set [9] (90 g a.i./ha) stood at 95%. The “Action against harmful plants CYPSE” value in [10] (90 g a.i./ha) worked out at 95%.
As to `CCN(CC)C(=O)COc1c(Br)ccc(C(=O)C2=C(O)CCCC2=O)c1Br` [Compound 3.65], the “Crop plant damage ORYSP” value in data set [4] (50 g a.i./ha) was found to be 0%. The “Action against harmful plants AMARE” value worked out at 90% in [1] and 80% in data set [5]. Besides, the “Action against harmful plants SINAL” value in data set [2] was 80%; in [6], 90%. For the same compound, the “Action against harmful plants STEME” value in [3] is 90%; in data set [7], 100%. In addition, the “Action against harmful plants SAGPY” value in data set [8] (50 g a.i./ha) is listed as 80%. The “Action against harmful plants MOOVA” value in [9] (50 g a.i./ha) was found to be 99%. Further, the “Action against harmful plants CYPSE” value in data set [10] (50 g a.i./ha) was found to be 99%.
